Measurements: ChEMBL document CHEMBL4765330, “Synthesis of some steroidal mitocans of nanomolar cytotoxicity acting by apoptosis” (Eur J Med Chem, 2020)

Tests used:
A2780 [1] = assay: Cytotoxicity against human A2780 cells assessed as reduction in cell viability incubated for 72 hrs by SRB assay; assay type: functional, cell-based
FaDu = assay: Cytotoxicity against human FaDu cells assessed as reduction in cell viability incubated for 72 hrs by SRB assay; assay type: functional, cell-based
MCF7 = assay: Cytotoxicity against human MCF7 cells assessed as reduction in cell viability incubated for 72 hrs by SRB assay; assay type: functional, cell-based
in vitro [2] = details: mouse, NIH3T3 cells versus MCF7 cells
Description: Selectivity index, ratio of IC50 for mouse NIH3T3 cells to IC50 for human MCF7 cells incubated for 72 hrs by SRB assay

NIH3T3 = assay: Cytotoxicity against mouse NIH3T3 cells assessed as reduction in cell viability incubated for 72 hrs by SRB assay; assay type: cell-based
in vitro [3] = details: mouse, NIH3T3 cells versus A2780 cells
Description: Selectivity index, ratio of IC50 for mouse NIH3T3 cells to IC50 for human A2780 cells incubated for 72 hrs by SRB assay

[4] = Selectivity index, ratio of IC50 for mouse NIH3T3 cells to IC50 for human A375 cells incubated for 72 hrs by SRB assay; assay type: toxicity; details: NIH3T3 cells versus A375 cells, read-out: Ratio IC50
HT-29 = assay: Cytotoxicity against human HT29 cells assessed as reduction in cell viability incubated for 72 hrs by SRB assay; assay type: functional, cell-based
A-375 [5] = assay: Cytotoxicity against human A375 cells assessed as reduction in cell viability incubated for 72 hrs by SRB assay; assay type: functional, cell-based
in vitro [6] = details: mouse, NIH3T3 cells versus FaDu cells
Description: Selectivity index, ratio of IC50 for mouse NIH3T3 cells to IC50 for human FaDu cells incubated for 72 hrs by SRB assay

in vitro [7] = details: mouse, NIH3T3 cells versus HT29 cells
Description: Selectivity index, ratio of IC50 for mouse NIH3T3 cells to IC50 for human HT29 cells incubated for 72 hrs by SRB assay

A-375 [8] = assay: Induction of apoptosis in human A375 cells assessed as necrotic cells after 48 hrs by annexin V-FITC and propidium iodide staining based flow cytometric analysis; assay type: functional
A2780 [9] = assay: Cell cycle arrest in human A2780 cells assessed as apoptotic cells after 48 hrs by PI staining based flow cytometric analysis (reference value: 0.48 %); assay type: functional
A2780 [10] = assay: Cell cycle arrest in human A2780 cells assessed as accumulation at S phase after 48 hrs by PI staining based flow cytometric analysis (reference value: 34.22 %); assay type: functional
A2780 [11] = assay: Cell cycle arrest in human A2780 cells assessed as accumulation at G1 phase after 48 hrs by PI staining based flow cytometric analysis (reference value: 54.53 %); assay type: functional
A-375 [12] = assay: Induction of apoptosis in human A375 cells assessed as apoptotic cells after 48 hrs by annexin V-FITC and propidium iodide staining based flow cytometric analysis; assay type: functional
A-375 [13] = assay: Induction of apoptosis in human A375 cells assessed as late apoptotic cells after 48 hrs by annexin V-FITC and propidium iodide staining based flow cytometric analysis; assay type: functional
A2780 [14] = assay: Cell cycle arrest in human A2780 cells assessed as accumulation at G2/M phase after 48 hrs by PI staining based flow cytometric analysis (reference value: 11.25 %); assay type: functional
[15] = Drug uptake in nucleus of human A2780 cells at 0.054 mM incubated for 1 hr with compound and Hoechst 33342 and followed by further incubation with Rhodamine123 for 20 mins by fluorescence microscopic method; assay type: ADME, subcellular; details: a2780, 1.333 h, 54 µM, time 80 min
[16] = Drug uptake in mitochondria of human A2780 cells at 0.054 mM incubated for 1 hr with compound and Hoechst 33342 and followed by further incubation with Rhodamine123 for 20 mins by fluorescence microscopic method; assay type: ADME; details: a2780, 1.333 h, 54 µM, time 80 min
[17] = Homo sapiens, A2780, 72 h, read-out: IC50
[18] = Homo sapiens, FaDu, 72 h, read-out: IC50
[19] = Homo sapiens, MCF7, 72 h, read-out: IC50
[20] = Mus musculus, NIH3T3, 72 h, read-out: IC50
[21] = Homo sapiens, HT-29, 72 h, read-out: IC50
[22] = Homo sapiens, A-375, 72 h, read-out: IC50

Row | Compound | IC50 (A2780 [1]; [17]) [nM] | IC50 (FaDu; [18]) [nM] | IC50 (MCF7; [19]) [nM] | selectivity ratio at 72 h (in vitro [2]) | IC50 (NIH3T3; [20]) [nM] | selectivity ratio at 72 h (in vitro [3]) | selectivity ratio at 72 h [4] | IC50 (HT-29; [21]) [nM] | IC50 (A-375 [5]; [22]) [nM] | selectivity ratio at 72 h (in vitro [6]) | also measured
1 | C=C(c1ccc(C(=O)O)cc1)c1cc2c(cc1C)C(C)(C)CCC2(C)C [BEXAROTENE] | 26500 | 29800 | 10600 | 1.8 | 18700 | 0.6 | 0.7 | > 30000 | 28400 | 0.6 | –
2 | CCN(CC)c1ccc2c(-c3ccccc3C(=O)OCC(=O)[C@@]3(O)CC[C@H]4[C@@H]5CCC6=CC(=O)C=C[C@@]6(C)[C@H]5C(=O)C[C@@]43C)c3ccc(=[N+](CC)CC)cc-3oc2c1.[Cl-] | 300 | 400 | 200 | 7.3 | 1800 | 5.2 | 1.8 | 600 | 100 | 4.1 | selectivity ratio at 72 h (in vitro [7]): 2.9; Activity (A-375 [8]): 2%; Activity (A2780 [9]): 37.36%; Activity (A2780 [10]): 87.22%; Activity (A2780 [11]): 12.78%; Activity (A-375 [12]): 48%; Activity (A-375 [13]): 14%; Activity (A2780 [14]): 0%
3 | C[C@]12CC[C@H](O)C=C1CC[C@@H]1[C@@H]2CC[C@]2(C)C(c3cccnc3)=CC[C@@H]12 | – | – | – | – | – | – | – | – | – | – | IC50 (A2780 [1]; a2780): Nd(Insoluble); IC50 (FaDu; fadu): Nd(Insoluble); IC50 (MCF7; mcf7): Nd(Insoluble); IC50 (NIH3T3; nih3t3): Nd(Insoluble); IC50 (HT-29; ht-29): Nd(Insoluble); IC50 (A-375 [5]; a-375): Nd(Insoluble)
4 | C=C(c1ccc(C(=O)N2CCN(C(=O)c3ccccc3-c3c4ccc(=[N+](CC)CC)cc-4oc4cc(N(CC)CC)ccc34)CC2)cc1)c1cc2c(cc1C)C(C)(C)CCC2(C)C.[Cl-] | – | – | – | – | – | – | – | – | – | – | IC50 (A2780 [1]; a2780): Nd(Insoluble); IC50 (FaDu; fadu): Nd(Insoluble); IC50 (MCF7; mcf7): Nd(Insoluble); IC50 (NIH3T3; nih3t3): Nd(Insoluble); IC50 (HT-29; ht-29): Nd(Insoluble); IC50 (A-375 [5]; a-375): Nd(Insoluble)
5 | C[C@]12C=CC(=O)C=C1CC[C@@H]1[C@@H]2C(=O)C[C@@]2(C)[C@H]1CC[C@]2(O)C(=O)CO [PREDNISONE] | – | > 30000 | > 30000 | – | > 30000 | – | – | > 30000 | > 30000 | – | –
6 | CCN(CC)c1ccc2c(-c3ccccc3C(=O)O[C@H]3CC[C@@]4(C)C(=CC[C@@H]5[C@@H]4CC[C@]4(C)C(c6cccnc6)=CC[C@@H]54)C3)c3ccc(=[N+](CC)CC)cc-3oc2c1 | 100 | 200 | 200 | 1.6 | 300 | 1.8 | 1.7 | 200 | 200 | 1.8 | selectivity ratio at 72 h (in vitro [7]): 1.1
7 | CN[C@@H]1C[C@H]2O[C@@](C)([C@@H]1OC)n1c3ccccc3c3c4c(c5c6ccccc6n2c5c31)C(=O)NC4 [STAUROSPORINE] | – | – | – | – | 8 | – | – | – | – | – | –
8 | COc1cccc2c1C(=O)c1c(O)c3c(c(O)c1C2=O)C[C@@](O)(C(=O)CO)C[C@@H]3O[C@H]1C[C@H](N)[C@H](O)[C@H](C)O1 [DOXORUBICIN] | 10 | – | – | – | 400 | – | – | 900 | – | – | –
9 | CCN(CC)c1ccc2c(-c3ccccc3C(=O)O[C@H]3CC[C@H]4[C@@H]5CCC6=CC(=O)CC[C@]6(C)[C@H]5CC[C@]34C)c3ccc(=[N+](CC)CC)cc-3oc2c1.[Cl-] | 80 | 200 | 60 | 3.1 | 200 | 2.2 | 1.1 | 120 | 160 | 1 | selectivity ratio at 72 h (in vitro [7]): 1.5; Activity (A-375 [8]): 20%; Drug uptake [15]: Not Active; Activity (A2780 [9]): 3.29%; Activity (A2780 [10]): 44.74%; Activity (A2780 [11]): 51.77%; Activity (A-375 [12]): 5%; Activity (A-375 [13]): 12%; Drug uptake [16]: Active; Activity (A2780 [14]): 3.48%
10 | CCN(CC)c1ccc2c(-c3ccccc3C(=O)O[C@H]3CC[C@@]4(C)C(=CC[C@H]5[C@@H]6CC[C@H]([C@H](C)CCCC(C)C)[C@@]6(C)CC[C@@H]54)C3)c3ccc(=[N+](CC)CC)cc-3oc2c1.[Cl-] | – | – | – | – | – | – | – | – | – | – | IC50 (A2780 [1]; a2780): Nd(Insoluble); IC50 (FaDu; fadu): Nd(Insoluble); IC50 (MCF7; mcf7): Nd(Insoluble); IC50 (NIH3T3; nih3t3): Nd(Insoluble); IC50 (HT-29; ht-29): Nd(Insoluble); IC50 (A-375 [5]; a-375): Nd(Insoluble)
11 | CCN(CC)c1ccc2c(-c3ccccc3C(=O)N3CCNCC3)c3ccc(=[N+](CC)CC)cc-3oc2c1 | 26400 | > 30000 | 17800 | – | > 30000 | 1.1 | – | > 30000 | > 30000 | – | –
